Data published in ChEMBL document CHEMBL1148980, “Scabrolides E-G, three new norditerpenoids from the soft coral Sinularia scabra” (2004).
Values after ≈ are worked out from the molar mass of the structure shown. Active and inactive are the calls of the source. The rule behind the calls is not given here.

Assays:
Format in all cases: functional
[1] = system: KB; test: Cytotoxicity against human KB cells by MTT assay
[2] = system: HEPA 59T/VGH; test: (§1) Cytotoxicity against human HEPA 59T/VGH cells by MTT assay
[3] = as §1; conditions: read-out: ED50 (the source's name)

Row | SMILES | Activity [1] | Activity [2] | EC50 ([1]; read-out: ED50 (the source's name)) [µg/mL] | EC50 [3] [µg/mL]
1 | C=C(C)[C@@H]1CC(=O)C[C@H](O)[C@@]2(O)[C@H]1C=C1C(=O)O[C@@H]3C[C@](C)(O)[C@H]2[C@H]13 | inactive | inactive |  | 
2 | C=C(C)[C@H]1C/C=C2\C(=O)O[C@H](C[C@]3(C)CC(=O)[C@H](CC(=O)C1)O3)[C@H]2O [SCABROLIDE E] |  |  | 0.7 (≈ 2.01 µM) | 0.5 (≈ 1.44 µM)
